Like-named read-outs stand apart in the source and are kept apart here.
Experiments:
[1] = molecular target: T1, HiBit-BRG1 fusion protein in stable HeLa cell line expressing HiBit-BRG1 and LgBit (Homo sapiens, UniProt P51532); experiment: HiBiT-BRG1 cell-based degradation assay (Nano-Glo HiBiT, 24 h); conditions: HeLa HiBit-BRG1/LgBit cells; for DC50: read-out: BRMG1 HiBit Degradation IC50; for Dmax: top dose 30 μM, read-out: BRG1 HiBit Degradation Maximum (%)
T1 construct: expressed in transfected cells
T1 sequence (P51532 whole entry, the tested form may be a part): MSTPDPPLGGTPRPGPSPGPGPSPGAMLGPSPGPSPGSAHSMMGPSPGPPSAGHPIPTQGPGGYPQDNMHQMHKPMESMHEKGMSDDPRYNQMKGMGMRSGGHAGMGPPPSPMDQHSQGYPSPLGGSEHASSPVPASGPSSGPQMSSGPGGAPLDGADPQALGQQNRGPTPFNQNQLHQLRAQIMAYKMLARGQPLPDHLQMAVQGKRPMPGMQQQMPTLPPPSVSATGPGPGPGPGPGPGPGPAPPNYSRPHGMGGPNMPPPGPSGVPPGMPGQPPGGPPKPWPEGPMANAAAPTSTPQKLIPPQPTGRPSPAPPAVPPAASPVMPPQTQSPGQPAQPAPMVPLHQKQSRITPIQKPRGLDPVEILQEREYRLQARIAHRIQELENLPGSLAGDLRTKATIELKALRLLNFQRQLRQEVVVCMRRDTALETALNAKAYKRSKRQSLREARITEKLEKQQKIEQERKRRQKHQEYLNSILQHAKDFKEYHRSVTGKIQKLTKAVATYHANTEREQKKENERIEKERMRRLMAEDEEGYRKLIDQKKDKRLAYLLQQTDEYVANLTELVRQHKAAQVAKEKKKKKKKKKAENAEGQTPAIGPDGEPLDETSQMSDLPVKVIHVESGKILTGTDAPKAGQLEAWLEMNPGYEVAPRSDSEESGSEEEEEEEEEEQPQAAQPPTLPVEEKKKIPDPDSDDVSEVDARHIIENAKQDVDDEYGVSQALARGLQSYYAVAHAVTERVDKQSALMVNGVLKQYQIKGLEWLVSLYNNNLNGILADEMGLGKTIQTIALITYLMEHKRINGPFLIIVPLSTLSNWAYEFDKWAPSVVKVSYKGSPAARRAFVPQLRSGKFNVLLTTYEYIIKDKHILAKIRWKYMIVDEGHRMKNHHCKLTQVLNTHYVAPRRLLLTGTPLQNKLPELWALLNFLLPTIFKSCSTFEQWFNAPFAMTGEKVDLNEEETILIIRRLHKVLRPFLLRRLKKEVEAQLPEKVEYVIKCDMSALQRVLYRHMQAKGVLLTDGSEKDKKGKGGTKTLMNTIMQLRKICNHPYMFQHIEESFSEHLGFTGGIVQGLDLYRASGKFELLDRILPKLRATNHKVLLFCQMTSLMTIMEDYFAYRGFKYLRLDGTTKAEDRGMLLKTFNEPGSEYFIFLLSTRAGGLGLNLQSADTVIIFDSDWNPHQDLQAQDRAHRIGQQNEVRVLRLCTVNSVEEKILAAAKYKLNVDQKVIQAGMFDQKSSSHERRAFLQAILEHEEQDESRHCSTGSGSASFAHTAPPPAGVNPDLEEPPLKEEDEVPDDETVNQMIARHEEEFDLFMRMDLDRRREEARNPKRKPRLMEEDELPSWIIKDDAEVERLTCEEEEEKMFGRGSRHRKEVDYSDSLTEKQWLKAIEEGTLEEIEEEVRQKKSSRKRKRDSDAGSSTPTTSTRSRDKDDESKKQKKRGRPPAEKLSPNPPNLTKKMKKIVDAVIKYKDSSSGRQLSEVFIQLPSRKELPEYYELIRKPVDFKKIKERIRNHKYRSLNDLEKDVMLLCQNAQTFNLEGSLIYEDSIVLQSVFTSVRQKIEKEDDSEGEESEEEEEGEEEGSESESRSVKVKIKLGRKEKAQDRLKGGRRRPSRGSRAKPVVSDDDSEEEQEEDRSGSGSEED
Procedure: Procedure: A stable HeLa cell line expressing HiBiT-BRM was generated. On day 0, 5000 cells were seeded in 40 μL of media into each well of 384-well cell culture plates. […] Subsequently plates were incubated for 24 h in a standard tissue culture incubator and equilibrated at room temperature for 15 minutes. Nano-Glo HiBiT Lytic Detection System (Promega N3050) reagent was freshly prepared and 20 ul was added to each well. Upon addition of this LgBit-containing reagent, the HiBiT and LgBiT proteins associate to form the luminescent NanoBiT luciferase. The plates were shaken for 10 minutes at room temperature and the bioluminescence read using an EnVision plate reader (PerkinElmer). For measurement of BRG1 degradation, a stable HeLa cell line expressing HiBit-BRG1 and LgBit was generated. The same protocol as above was then followed. The degradation % was calculated using the following formula: % degradation=100%−100%×(Lumsample−LumLC)/(LumHC−LumLC). DMSO treated cells are employed as High Control (HC) and 2 μM of a known BRM/BRG1 degrader standard treated cells are employed as Low Control (LC).

[2] = molecular target: T2, HiBiT-BRM fusion protein in stable HeLa cell line (Homo sapiens, UniProt P51531); experiment: HiBiT-BRM cell-based degradation assay (Nano-Glo HiBiT Lytic Detection, 24 h); set-up: DC50: scale not given here; conditions: HeLa HiBiT-BRM cells; for DC50: read-out: BRM HiBit Degradation IC50; for BRM HiBit Degradation Maximum (%): top dose 30 μM
T2 construct: expressed in transfected cells
T2 sequence (P51531 whole entry, the tested form may be a part): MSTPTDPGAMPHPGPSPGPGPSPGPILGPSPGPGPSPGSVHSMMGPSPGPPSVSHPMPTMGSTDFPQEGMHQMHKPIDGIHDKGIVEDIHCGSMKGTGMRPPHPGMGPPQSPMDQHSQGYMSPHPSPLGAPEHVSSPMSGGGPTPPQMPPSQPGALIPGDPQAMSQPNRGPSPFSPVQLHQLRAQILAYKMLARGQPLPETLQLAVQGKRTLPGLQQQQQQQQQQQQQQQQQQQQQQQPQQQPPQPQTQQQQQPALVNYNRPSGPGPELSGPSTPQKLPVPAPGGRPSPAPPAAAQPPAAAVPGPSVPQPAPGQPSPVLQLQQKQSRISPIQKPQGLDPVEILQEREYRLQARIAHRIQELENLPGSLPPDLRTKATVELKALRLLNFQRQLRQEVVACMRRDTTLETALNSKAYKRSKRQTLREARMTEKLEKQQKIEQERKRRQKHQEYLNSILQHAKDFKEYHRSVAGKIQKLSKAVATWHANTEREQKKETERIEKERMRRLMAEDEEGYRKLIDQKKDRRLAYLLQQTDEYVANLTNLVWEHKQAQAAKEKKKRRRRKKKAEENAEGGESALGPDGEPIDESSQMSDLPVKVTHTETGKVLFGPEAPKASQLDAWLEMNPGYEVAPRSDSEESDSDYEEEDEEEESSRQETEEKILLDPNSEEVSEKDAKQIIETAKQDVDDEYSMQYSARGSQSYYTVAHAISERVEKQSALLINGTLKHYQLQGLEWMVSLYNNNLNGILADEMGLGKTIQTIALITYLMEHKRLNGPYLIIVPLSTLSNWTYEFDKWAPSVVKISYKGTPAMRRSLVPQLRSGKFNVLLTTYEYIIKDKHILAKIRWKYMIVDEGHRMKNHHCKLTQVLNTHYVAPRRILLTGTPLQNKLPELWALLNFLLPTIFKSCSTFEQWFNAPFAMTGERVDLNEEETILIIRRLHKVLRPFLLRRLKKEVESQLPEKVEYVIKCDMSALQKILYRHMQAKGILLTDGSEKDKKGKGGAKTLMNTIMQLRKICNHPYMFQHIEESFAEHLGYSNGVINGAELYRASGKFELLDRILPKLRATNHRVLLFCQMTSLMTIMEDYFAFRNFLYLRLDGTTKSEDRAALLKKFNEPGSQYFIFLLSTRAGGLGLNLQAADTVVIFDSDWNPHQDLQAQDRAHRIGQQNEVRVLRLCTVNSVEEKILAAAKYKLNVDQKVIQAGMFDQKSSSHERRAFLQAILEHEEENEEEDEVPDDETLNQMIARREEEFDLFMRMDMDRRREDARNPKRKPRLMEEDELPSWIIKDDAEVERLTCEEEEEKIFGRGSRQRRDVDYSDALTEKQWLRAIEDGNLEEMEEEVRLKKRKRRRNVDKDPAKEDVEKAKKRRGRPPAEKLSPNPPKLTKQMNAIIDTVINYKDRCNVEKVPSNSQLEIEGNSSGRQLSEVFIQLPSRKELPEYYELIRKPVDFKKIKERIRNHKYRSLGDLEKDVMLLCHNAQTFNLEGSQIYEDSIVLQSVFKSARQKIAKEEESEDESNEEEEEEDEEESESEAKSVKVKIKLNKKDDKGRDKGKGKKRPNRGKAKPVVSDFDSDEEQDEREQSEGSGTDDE
Procedure: Procedure: A stable HeLa cell line expressing HiBiT-BRM was generated. On day 0, 5000 cells were seeded in 40 μL of media into each well of 384-well cell culture plates. On day 1, cells were treated with 120 nL DMSO or 120 nL of 3-fold serially DMSO-diluted compounds (10 points in duplicate with 30 μM as final top dose). Subsequently plates were incubated for 24 h in a standard tissue culture incubator and equilibrated at room temperature for 15 minutes. Nano-Glo HiBiT Lytic Detection System (Promega N3050) reagent was freshly prepared and 20 ul was added to each well. Upon addition of this LgBit-containing reagent, the HiBiT and LgBiT proteins associate to form the luminescent NanoBiT luciferase. The plates were shaken for 10 minutes at room temperature and the bioluminescence read using an EnVision plate reader (PerkinElmer).
The degradation % was calculated using the following formula: % degradation=100%−100%×(Lumsample−LumLC)/(LumHC−LumLC). DMSO treated cells are employed as High Control (HC) and 2 μM of a known BRM/BRG1 degrader standard treated cells are employed as Low Control (LC).

SMILES | DC50 [1] [nM] | Dmax [1] [%] | DC50 [2] [nM] | BRM HiBit Degradation Maximum (%) [2] | DC50 ([2]; given as a number) [nM]
Cc1ncsc1-c1ccc([C@H](C)NC(=O)[C@@H]2C[C@@H](O)CN2C(=O)[C@@H](c2cc(-c3cnc(N4CC5(CC(c6ccc7cc(-c8ccccc8O)nnc7c6)C5)C4)nc3)no2)C(C)C)cc1 [Compound 18] | > 10 | > 50 | < 10 | A (“A” indicates maximum degradation ≥75%) | 
Cc1ncsc1-c1ccc([C@H](C)NC(=O)[C@@H]2C[C@@H](O)CN2C(=O)[C@H](c2cc(-c3cnc(N4CC[C@@H](c5ccc6cc(-c7ccccc7O)nnc6c5)C4)nc3)no2)C(C)C)cc1 [Compound 19] |  | < 50 | > 100 | B (“B” indicates maximum degradation ≥50%) | 
Cc1ncsc1-c1ccc([C@H](C)NC(=O)[C@@H]2C[C@@H](O)CN2C(=O)[C@@H](c2cc(-c3cnc(N4CC[C@@H](c5ccc6cc(-c7ccccc7O)nnc6c5)C4)nc3)no2)C(C)C)cc1 [Compound 20] |  | < 50 | < 10 | A (“A” indicates maximum degradation ≥75%) | 
Cc1ncsc1-c1ccc([C@H](C)NC(=O)[C@@H]2C[C@@H](O)CN2C(=O)[C@H](c2cc(-c3cnc(N4CC[C@H](c5ccc6cc(-c7ccccc7O)nnc6c5)C4)nc3)no2)C(C)C)cc1 [Compound 21] |  | < 50 |  | C (“C” indicates maximum degradation <50%) | 
Cc1ncsc1-c1ccc([C@H](C)NC(=O)[C@@H]2C[C@@H](O)CN2C(=O)[C@@H](c2cc(-c3cnc(N4CC[C@H](c5ccc6cc(-c7ccccc7O)nnc6c5)C4)nc3)no2)C(C)C)cc1 [Compound 22] | < 10 | > 75 | < 10 | A (“A” indicates maximum degradation ≥75%) | 
COc1cc2nnc(-c3ccccc3O)cc2cc1C1CN(c2ncc(-c3cc([C@@H](C(=O)N4C[C@H](O)C[C@H]4C(=O)N[C@@H](C)c4ccc(-c5scnc5C)cc4)C(C)C)on3)cn2)C1 [Compound 23] |  | < 50 | > 10 | A (“A” indicates maximum degradation ≥75%) | 
COc1cc2nnc(-c3ccccc3O)cc2cc1C1CN(c2ncc(-c3cc([C@H](C(=O)N4C[C@H](O)C[C@H]4C(=O)N[C@@H](C)c4ccc(-c5scnc5C)cc4)C(C)C)on3)cn2)C1 [Compound 24] | < 10 | > 75 | < 10 | A (“A” indicates maximum degradation ≥75%) | 
Cc1ncsc1-c1ccc([C@H](C)NC(=O)[C@@H]2C[C@@H](O)CN2C(=O)[C@H](c2cc(N3CCC4(CC3)CC(c3ccc5cc(-c6ccccc6O)nnc5c3)C4)no2)C(C)C)cc1 [Compound 25] |  | < 50 | > 100 | B (“B” indicates maximum degradation ≥50%) | 
Cc1ncsc1-c1ccc([C@H](C)NC(=O)[C@@H]2C[C@@H](O)CN2C(=O)[C@@H](c2cc(N3CCC4(CC3)CC(c3ccc5cc(-c6ccccc6O)nnc5c3)C4)no2)C(C)C)cc1 [Compound 26] | > 10 | > 75 | < 10 | A (“A” indicates maximum degradation ≥75%) | 
Cc1ncsc1-c1ccc([C@H](C)NC(=O)[C@@H]2C[C@@H](O)CN2C(=O)[C@H](c2cc(-c3cnc(N4CC(c5cc(F)c6cc(-c7ccccc7O)nnc6c5)C4)nc3)no2)C(C)C)cc1 [Compound 27] |  | < 50 | > 100 | A (“A” indicates maximum degradation ≥75%) | 
Cc1ncsc1-c1ccc([C@H](C)NC(=O)[C@@H]2C[C@@H](O)CN2C(=O)[C@@H](c2cc(-c3cnc(N4CC(c5cc(F)c6cc(-c7ccccc7O)nnc6c5)C4)nc3)no2)C(C)C)cc1 [Compound 28] |  | < 50 | > 10 | A (“A” indicates maximum degradation ≥75%) | 
Cc1ncsc1-c1ccc([C@H](C)NC(=O)[C@@H]2C[C@@H](O)CN2C(=O)[C@H](c2cc(-c3cnc(N4CC(c5cc6cc(-c7ccccc7O)nnc6cc5Cl)C4)nc3)no2)C(C)C)cc1 [Compound 29] |  | < 50 | > 100 | A (“A” indicates maximum degradation ≥75%) | 
Cc1ncsc1-c1ccc([C@H](C)NC(=O)[C@@H]2C[C@@H](O)CN2C(=O)[C@@H](c2cc(-c3cnc(N4CC(c5cc6cc(-c7ccccc7O)nnc6cc5Cl)C4)nc3)no2)C(C)C)cc1 [Compound 30] | > 10 | > 75 | < 10 | A (“A” indicates maximum degradation ≥75%) | 
Cc1ncsc1-c1ccc([C@H](C)NC(=O)[C@@H]2C[C@@H](O)CN2C(=O)[C@H](c2cc(-c3cnc(N4CC(c5cc6nnc(-c7ccccc7O)cc6cc5Cl)C4)nc3)no2)C(C)C)cc1 [Compound 31] |  | < 50 |  | A (“A” indicates maximum degradation ≥75%) | 243
Cc1ncsc1-c1ccc([C@H](C)NC(=O)[C@@H]2C[C@@H](O)CN2C(=O)[C@@H](c2cc(-c3cnc(N4CC(c5cc6nnc(-c7ccccc7O)cc6cc5Cl)C4)nc3)no2)C(C)C)cc1 [Compound 32] |  | < 50 | > 10 | B (“B” indicates maximum degradation ≥50%) | 
Cc1ncsc1-c1ccc([C@H](C)NC(=O)[C@@H]2C[C@@H](O)CN2C(=O)[C@H](c2cc(N3CC4(CC(c5ccc6cc(-c7ccccc7O)nnc6c5)C4)C3)no2)C(C)C)cc1 [Compound 33] |  | < 50 | > 100 | A (“A” indicates maximum degradation ≥75%) | 
Cc1ncsc1-c1ccc([C@H](C)NC(=O)[C@@H]2C[C@@H](O)CN2C(=O)[C@@H](c2cc(N3CC4(CC(c5ccc6cc(-c7ccccc7O)nnc6c5)C4)C3)no2)C(C)C)cc1 [Compound 34] | > 10 | > 75 | < 10 | A (“A” indicates maximum degradation ≥75%) | 
Cc1ncsc1-c1ccc([C@H](C)NC(=O)[C@@H]2C[C@@H](O)CN2C(=O)[C@H](c2cc(-c3cnc(N4CC(c5cc(Cl)c6cc(-c7ccccc7O)nnc6c5)C4)nc3)no2)C(C)C)cc1 [Compound 35] |  | < 50 | > 100 | B (“B” indicates maximum degradation ≥50%) | 
Cc1ncsc1-c1ccc([C@H](C)NC(=O)[C@@H]2C[C@@H](O)CN2C(=O)[C@@H](c2cc(-c3cnc(N4CC(c5cc(Cl)c6cc(-c7ccccc7O)nnc6c5)C4)nc3)no2)C(C)C)cc1 [Compound 36] |  | < 50 | > 10 | B (“B” indicates maximum degradation ≥50%) | 
Cc1ncsc1-c1ccc([C@H](C)NC(=O)[C@@H]2C[C@@H](O)CN2C(=O)[C@H](c2cc(-c3ccnc(N4CCC(c5ccc6nnc(-c7ccccc7O)cc6c5)CC4)n3)no2)C(C)C)cc1 [Compound 37] |  | < 50 |  | C (“C” indicates maximum degradation <50%) | 
Cc1ncsc1-c1ccc([C@H](C)NC(=O)[C@@H]2C[C@@H](O)CN2C(=O)[C@@H](c2cc(-c3ccnc(N4CCC(c5ccc6nnc(-c7ccccc7O)cc6c5)CC4)n3)no2)C(C)C)cc1 [Compound 38] |  | < 50 | > 100 | A (“A” indicates maximum degradation ≥75%) | 
Cc1ncsc1-c1ccc([C@H](C)NC(=O)[C@@H]2C[C@@H](O)CN2C(=O)[C@H](c2cc(-c3cnc(N4CCN(c5ccc6cc(-c7ccccc7O)nnc6c5)CC4)nc3)no2)C(C)C)cc1 [Compound 39] |  | < 50 |  | C (“C” indicates maximum degradation <50%) | 
